Reference: patent US11117926B2, “Cholane derivatives for use in the treatment and/or prevention of FXR and TGR5/GPBAR1 mediated diseases” (BAR PHARMACEUTICALS S.R.L., priority 2014, dated 2021)
Structures can show the parent of a compound that is named as a salt.

How the values were obtained:
[1] = patients suffering from primary biliary cirrhosis (PBC), clinical trials; cited from earlier work
FXR = molecular target: T1, FXR (Homo sapiens, UniProt Q96RI1); assay: FXR mediated transactivation (luciferase reporter) in transfected HepG2 cells; format: cell-based; details: each compound at 10 microM, transactivation activity of CDCA on FXR = 100%
T1 construct: expressed in transfected cells; host or cells: HepG2
T1 sequence (Q96RI1 1-486): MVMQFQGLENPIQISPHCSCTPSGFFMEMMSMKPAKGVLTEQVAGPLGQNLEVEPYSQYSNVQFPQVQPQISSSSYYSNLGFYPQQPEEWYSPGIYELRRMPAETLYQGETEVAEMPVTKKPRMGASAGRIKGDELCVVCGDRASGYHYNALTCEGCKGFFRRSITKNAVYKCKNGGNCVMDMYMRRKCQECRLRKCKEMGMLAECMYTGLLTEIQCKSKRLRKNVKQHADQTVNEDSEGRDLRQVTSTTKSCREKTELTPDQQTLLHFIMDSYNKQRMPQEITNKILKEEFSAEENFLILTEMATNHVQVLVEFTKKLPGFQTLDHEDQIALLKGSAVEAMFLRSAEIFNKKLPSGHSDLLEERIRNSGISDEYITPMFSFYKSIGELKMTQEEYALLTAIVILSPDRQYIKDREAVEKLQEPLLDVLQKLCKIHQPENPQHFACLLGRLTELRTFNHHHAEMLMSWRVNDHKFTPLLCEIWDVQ
T1 sequence (P19793 1-462 partner): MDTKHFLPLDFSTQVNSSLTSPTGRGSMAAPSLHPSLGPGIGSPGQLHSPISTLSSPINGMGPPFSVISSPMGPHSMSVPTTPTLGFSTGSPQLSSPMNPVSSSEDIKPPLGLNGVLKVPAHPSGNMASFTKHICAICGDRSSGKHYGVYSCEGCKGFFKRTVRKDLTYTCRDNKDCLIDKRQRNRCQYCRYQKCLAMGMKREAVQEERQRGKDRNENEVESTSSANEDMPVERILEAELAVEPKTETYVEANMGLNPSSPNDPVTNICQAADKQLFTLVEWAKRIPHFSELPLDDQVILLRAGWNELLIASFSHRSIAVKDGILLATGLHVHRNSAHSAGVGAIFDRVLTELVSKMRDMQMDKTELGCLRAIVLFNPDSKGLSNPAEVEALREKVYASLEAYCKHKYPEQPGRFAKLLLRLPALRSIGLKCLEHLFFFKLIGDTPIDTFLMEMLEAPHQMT
Protocol: (§1) Each compound was tested at the concentration of 10 microM and transactivation activity of CDCA on FXR and TLCA on CRE (i.e. TGR5/GPBAR1) was considered equal to 100%.
(§2) Biological Activities. Activity of selected compounds was tested in vitro using a whole cell model transfected with a reporter genes to establish selectivity of compounds shown in table 1 toward FXR and TGR5/GPBAR1 in comparison with chenodeoxycholic acid (CDCA) and TLCA. CDCA is a primary bile acid that functions as an endogenous ligand for FXR, while TLCA is a physiological ligand for TGR5/GPBAR1. In this assay, HepG2 cells (a liver-derived cell line) were cultured at 37° C. in minimum essential medium with Earl's salts containing 10% fetal bovine serum (FBS), 1% L-glutamine, and 1% penicillin/streptomycin. […] The transfection experiments were performed using Fugene HD according to manufactured specifications. Cells were plated in a 24-well plate at 5×10^4 cells/well. For FXR mediated transactivation, HepG2 cells were transfected with 100 ng of pSG5-FXR, 100 ng of pSG5-RXR, 100 ng of pGL4.70 a vector encoding the human Renilla gene and 250 ng of the reporter vector p(hsp27)-TK-LUC containing the FXR response element IR1 cloned from the promoter of heat shock protein 27 (hsp27).
(§3) At 24 h post-transfection, cells were stimulated for 18 h with 10 μM TLCA as a control agent or putative GPBAR1 agonists as the same concentration. After treatments, cells were lysed in 100 μL of lysis buffer (25 mM Tris-phosphate, pH 7.8; 2 mM DTT; 10% glycerol; 1% Triton X-100), and 20 μL of cellular lysate was assayed for luciferase activity using the luciferase assay system. Luminescence was measured using Glomax 20/20 luminometer. Luciferase activities were normalized against Renilla activities. Antagonism against FXR of GPBAR1/TGR5 was measured as percent of activity in transactivation assay suing activity of TLCA as example of agonism.

human GPBAR1 = molecular target: T2, human GPBAR1 (Homo sapiens, UniProt Q8TDU6); assay: GPBAR1 mediated transactivation (CRE luciferase reporter) in transfected HEK-293T cells; format: cell-based; details: each compound at 10 microM, transactivation activity of TLCA on CRE = 100%
T2 construct: expressed in transfected cells; host or cells: HEK-293T
T2 sequence (Q8TDU6 1-330): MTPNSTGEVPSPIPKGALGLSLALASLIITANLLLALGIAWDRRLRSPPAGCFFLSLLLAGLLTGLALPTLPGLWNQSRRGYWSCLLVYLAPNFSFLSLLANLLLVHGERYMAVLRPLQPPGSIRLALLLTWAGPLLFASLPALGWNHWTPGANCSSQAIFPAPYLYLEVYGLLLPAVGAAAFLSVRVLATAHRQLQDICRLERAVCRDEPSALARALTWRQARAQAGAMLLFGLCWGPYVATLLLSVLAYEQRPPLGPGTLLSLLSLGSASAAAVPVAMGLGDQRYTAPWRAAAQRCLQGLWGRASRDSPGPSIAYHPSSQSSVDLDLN
Protocol: as §1, §2, §3

[2] = not given; remark: listed apart in the source
[3] = tested on: sea lamprey (Petromyzon marinus); details: cited from earlier work
[4] = molecular target: T3, intestinal bile acid carrier (Homo sapiens, UniProt Q12908); details: CaCo-2 cells; cited from earlier work
T3 construct: host or cells: CaCo-2
T3 sequence (Q12908 1-348): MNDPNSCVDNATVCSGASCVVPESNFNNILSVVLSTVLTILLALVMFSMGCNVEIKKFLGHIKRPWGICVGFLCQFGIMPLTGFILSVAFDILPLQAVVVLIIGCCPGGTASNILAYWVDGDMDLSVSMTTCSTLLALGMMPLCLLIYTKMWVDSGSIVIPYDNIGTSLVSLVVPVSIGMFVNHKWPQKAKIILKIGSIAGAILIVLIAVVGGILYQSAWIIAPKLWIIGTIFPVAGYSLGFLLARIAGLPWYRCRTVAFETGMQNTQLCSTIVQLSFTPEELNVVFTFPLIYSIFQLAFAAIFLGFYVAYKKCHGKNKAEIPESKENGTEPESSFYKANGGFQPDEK

[5] = ANIT or 17α-ethynylestradiol cholestasis models

Row | SMILES | FXR (% of activity in comparison to 10 μM CDCA) (FXR) [%] | GPBAR1 (% of activity in comparison to 10 μM TLCA) (human GPBAR1) [%] | also measured
1 | CC[C@H]1[C@@H](O)[C@@H]2[C@H](CC[C@]3(C)[C@@H]([C@H](C)CCC(=O)O)CC[C@@H]23)[C@@]2(C)CC[C@@H](O)C[C@@H]12 [obeticholic acid] | – | – | patients with severe itching [1]: approximately 80%
2 | CC[C@H]1[C@@H](O)C2C3CC[C@H]([C@H](C)CCO)[C@@]3(C)CCC2[C@@]2(C)CC[C@@H](O)C[C@@H]12 (stereo partly drawn) [BAR502, 6α-ethyl-3α, 7α-dihydroxy-24-nor-5β-cholan-23-ol] | 263.0 ± 32.0 | 74.5 ± 6.4 | liver expression of canonical FXR target genes including OSTα, BSEP, SHP and MDR1 [5]: robustly modulates; serum alkaline phosphatase levels [5]: attenuates; survival [5]: increases survival; itching (pruritus) (mouse, in vivo): does not induce itching; bile acid pool ([2]; 17α-ethynylestradiol model): reshapes bile acid pool; cholestasis ([2]; 17α-ethynylestradiol model): attenuates cholestasis; itching ([2]; mouse, in vivo): without inducing itching
3 | CC[C@H]1[C@H](O)[C@@H]2[C@H](CC[C@]3(C)[C@@H]([C@H](C)CCCO)CC[C@@H]23)[C@@]2(C)CC[C@@H](O)C[C@@H]12 [BAR501-6a, 6α-ethyl-3α,7β-dihydroxy-5β-cholan-24-ol] | 15.4 ± 1.2 | 46.6 ± 6.7 | –
4 | CC[C@H]1[C@@H](O)C2C3CC[C@H]([C@H](C)CCCCC(=O)O)[C@@]3(C)CCC2[C@@]2(C)CC[C@@H](O)C[C@@H]12 (stereo partly drawn) [BAR802, 6α-ethyl-3α, 7α-dihydroxy-25, 26-bishomo-5β-cholan-26-oic acid] | 11.5 ± 8.5 | 56 ± 5.0 | –
5 | CC[C@H]1[C@@H](O)[C@@H]2[C@H](CC[C@]3(C)[C@@H]([C@H](C)CCC(=O)O)CC[C@@H]23)[C@@]2(C)CCCC[C@@H]12 [BAR704, 6α-ethyl-7α-hydroxy-5β-cholan-24-oic acid] | 220.5 ± 37.5 | 27.9 ± 6.3 | –
6 | CC[C@H]1[C@@H](O)C2C3CC[C@H]([C@H](C)CCCCCOS(=O)(=O)O)[C@@]3(C)CCC2[C@@]2(C)CC[C@@H](O)C[C@@H]12 (stereo partly drawn) [BAR804, 6α-ethyl-3α, 7α-dihydroxy-25, 26-bishomo-5β-cholan-26-yl-26-sodium sulfate] | 196.5 ± 6.5 | 52.5 ± 3.5 | –
7 | C[C@H](CCCOS(=O)(=O)O)[C@H]1CCC2C3CC[C@@H]4CCCC[C@]4(C)C3CC[C@@]21C (some centres unmarked) [BAR407] | 177.1 ± 3.5 | 37.3 ± 2.5 | olfactory response [3]: did not to elicit an olfactory response
8 | CC[C@@H]1[C@@H](O)[C@@H]2[C@H](CC[C@]3(C)[C@@H]([C@H](C)CCCO)CC[C@@H]23)[C@@]2(C)CC[C@@H](O)C[C@@H]12 [BAR504-6b, 6β-ethyl-3α,7α-dihydroxy-5β-cholan-24-ol] | 32.4 ± 14.1 | 75.3 ± 3.4 | –
9 | C[C@H](CCOS(=O)(=O)[O-])[C@H]1CC[C@H]2[C@@H]3[C@@H](O)C[C@@H]4C[C@H](O)CC[C@]4(C)[C@H]3CC[C@]12C.[Na+] [BAR106, 3α,7β-dihydroxy-24-nor-5β-cholan-23-yl-23-sodium sulfate] | 0 | 19.0 ± 1.3 | –
10 | C[C@H](CC(=O)O)[C@H]1CCC2C3CC[C@@H]4CCCC[C@]4(C)C3CC[C@@]21C (some centres unmarked) [BARn406] | 27.0 ± 1.5 | 4.8 ± 1.8 | ability to inhibit taurocholic acid transport [4]: undetectable
11 | CC[C@@H]1[C@@H](O)[C@@H]2[C@H](CC[C@]3(C)[C@@H]([C@H](C)CCCO)CC[C@@H]23)[C@@]2(C)CCCC[C@@H]12 [BAR705, 6β-ethyl-7α-hydroxy-5β-cholan-24-ol] | 43.7 ± 3.9 | 67.0 ± 9.9 | –
12 | CC[C@H]1[C@H](O)[C@@H]2[C@H](CC[C@]3(C)[C@@H]([C@H](C)CCCO)CC[C@@H]23)[C@@]2(C)CCCC[C@@H]12 [BAR703, 6α-ethyl-7β-hydroxy-5β-cholan-24-ol] | 8.6 ± 0.8 | 47.7 ± 1.0 | –
13 | CC[C@@H]1[C@H](O)[C@@H]2[C@H](CC[C@]3(C)[C@@H]([C@H](C)CCCO)CC[C@@H]23)[C@@]2(C)CC[C@@H](O)C[C@@H]12 [BAR501, 6β-ethyl-3α,7β-dihydroxy-5β-cholan-24-ol] | 9.9 ± 0.1 | 64.5 ± 0.5 | –
14 | CC[C@H]1[C@@H](O)C2C3CC[C@H]([C@H](C)CCO)[C@@]3(C)CCC2[C@@]2(C)CCCC[C@@H]12 (stereo partly drawn) [BARn701, 6α-ethyl-7α-hydroxy-24-nor-5β-cholan-23-ol] | 90 ± 22 | 55 ± 1.0 | –
15 | CC[C@H]1[C@@H](O)C2C3CC[C@H]([C@H](C)CCO)[C@@]3(C)CCC2[C@@]2(C)CC[C@H](O)C[C@@H]12 (stereo partly drawn) [BARn706, 6α-ethyl-3β,7α-dihydroxy-24-nor-5β-cholan-23-ol] | 197.5 ± 4.5 | 69.5 ± 6.5 | –
